Read-outs that look alike come from different tables or passages of the source. Each block holds one molecule with its values, some of them ahead of it.
Assays:
wild-type ABCG2 = target: T1, wild-type ABCG2 (Homo sapiens, UniProt Q9UNQ0); assay: Vesicular transport assay, inside-out ABCG2-Sf9 membrane vesicles
T1 sequence (Q9UNQ0 1-655): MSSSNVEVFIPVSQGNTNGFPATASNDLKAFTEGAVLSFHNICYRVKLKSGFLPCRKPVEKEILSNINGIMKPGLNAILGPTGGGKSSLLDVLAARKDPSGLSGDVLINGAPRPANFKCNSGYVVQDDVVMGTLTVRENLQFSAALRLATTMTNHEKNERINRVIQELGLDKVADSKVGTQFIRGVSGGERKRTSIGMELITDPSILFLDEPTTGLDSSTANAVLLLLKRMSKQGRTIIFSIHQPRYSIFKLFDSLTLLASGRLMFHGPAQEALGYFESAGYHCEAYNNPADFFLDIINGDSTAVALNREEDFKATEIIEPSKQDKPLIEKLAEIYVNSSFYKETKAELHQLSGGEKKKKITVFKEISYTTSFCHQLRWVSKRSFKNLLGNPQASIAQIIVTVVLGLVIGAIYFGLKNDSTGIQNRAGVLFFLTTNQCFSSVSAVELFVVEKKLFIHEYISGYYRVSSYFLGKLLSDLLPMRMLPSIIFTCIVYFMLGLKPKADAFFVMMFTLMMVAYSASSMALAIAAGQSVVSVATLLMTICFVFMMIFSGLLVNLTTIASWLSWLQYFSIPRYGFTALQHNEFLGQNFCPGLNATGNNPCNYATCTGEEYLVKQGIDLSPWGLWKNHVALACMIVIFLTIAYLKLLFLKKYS
Procedure: Measurement of the vesicular transport activity: The transport activity measurements were carried out with purified membrane vesicles containing ABCG2 or Bsep isolated from baculovirus infected Sf9 (Spodoptera frugiperda) cells or mammalian (ABCG2-M) cells. The membrane preparations contain 5-16% closed, inside-out oriented, membrane vesicles. The transporter pumps the molecules inside of these vesicles. The vesicles can be separated by rapidly filtrating of the membrane suspension through a glass filter or through a nitrocellulose membrane (using vacuum).
The quantitative determination of the transported molecule can be done in several ways, like: HPLC, LC/MS, but also fluorescent or radioactive labeling is also suitable. Tritium labeled substrates were used in the assays and the mode of detection was liquid-scintillation.
Measurement of the vesicular transport activity in case of ABCG2: More closely, as examples, inside-out membrane vesicles were incubated in the presence or absence of 4 mM ATP. […] The transport was stopped by addition of cold wash buffer (40 mM MOPS-Tris (pH 7.0), 70 mM KCl).
The transport was stopped by addition of cold wash buffer (10 mM Tris-HCl, pH 7.4; 250 mM sucrose and 100 mM NaCl).
For estrone-3-sulfate vesicular transport 10 mM Tris-HCl, (pH 7.4), 250 mM sucrose, and 10 mM MgCl2 containing buffer were incubated at 32° C. for 1 min. The transport was stopped by addition of cold wash buffer (10 mM Tris-HCl, pH 7.4; 250 mM sucrose and 100 mM NaCl).
The incubation mix was then rapidly filtered through class B glass fiber filters (pore size, 0.1 μm). Filters were washed with 5×200 μl of ice cold wash buffer and radioactivity retained on the filter was measured by liquid scintillation counting. ATP-dependent transport was calculated by subtracting the values obtained in the absence of ATP from those in the presence of ATP.
Exemplary Assay Design and Main Steps for ABCG2 • Prepare an appropriate concentration of membrane suspension in assay buffer; add the unlabeled and ^3H-labeled substrates to the suspension.

ABCG2 [1] = target: T2, ABCG2 (Homo sapiens, UniProt Q9UNQ0); assay: Vanadate sensitive ABCG2-ATPase assay in ABCG2-M (mammalian cell) membranes
T2 sequence (Q9UNQ0 1-655): T1 sequence (Q9UNQ0 1-655)
Procedure: Human membrane vesicle preparations (ABCG2-M) as well as membrane vesicle preparations obtained from insect cells expressing ABCG2, (MXR-Sf9) were obtained from Solvo Biotechnology (Budapest, Hungary). Both membranes are overexpressing the wild type version of ABCG2. The insect membrane vesicle preparations were produced using recombinant baculoviruses encoding ABCG2 (Ozvegy et al., 2002). Sf9 cells were cultured and infected with recombinant baculovirus stocks as described earlier (Sarkadi et al., 1992). Purified membrane vesicles from baculovirus-infected Sf9 cells were prepared essentially as described previously (Sarkadi et al., 1992). Membrane protein content was determined using the BCA method (Pierce Biotechnology, Rockford, Ill., USA).
(§1) Measurement of transporter activity: The ATPase activity of transporters are measured based on their vanadate sensitivity as known in the literature (see Noe et al. Hepatology, 2001, Vol. 33, No. 5, pp 1223-31; Schmitt et al. J. Neural. Transm., in press; Özvegy C et al. “Functional characterization of the human multidrug transporter, ABCG2, expressed in insect cells” Biochem Biophys Res Commun. 2001 July 6; 285(1):111-7.; Sarkadi, B. et al. (1992) Expression of the human multidrug resistance cDNA in insect cells generates a high activity drug-stimulated membrane ATPase. J Biol Chem 267: 4854-4858.).
(§2) The samples treated with cyclodextrin, or cholesterol@RAMEB complex was compared with untreated vesicles.
(§3) Briefly, as an example, membrane vesicles (20 μg/well) were incubated in ATPase assay buffer (10 mM MgCl2, 40 mM MOPS-Tris (pH 7.0), 50 mM KCl, 5 mM dithiothreitol, 0.1 mM EGTA, 4 mM sodium azide, 1 mM ouabain), 5 mM ATP and various concentrations of test drugs for 40 min at 37° C. ATPase activities were determined as the difference of inorganic phosphate liberation measured with and without the presence of 1.2 mM sodium orthovanadate (vanadate-sensitive ATPase activity).

ABCG2 [2] = target: T2, ABCG2; assay: Vanadate sensitive ABCG2-ATPase assay in ABCG2-Sf9 (insect cell) membranes
Procedure: as §1, §2, §3
EC50 is defined according to the International Union of Pharmacology Committee (Neubig, R. R., Spedding, M., Kenakin, T. and Christopoulos, A. (2003) International Union of Pharmacology Committee on Receptor Nomenclature and Drug Classification. XXXVIII. Update on terms and symbols in quantitative pharmacology. Pharmacol Rev 55: 597-606.).
The Michaelis-Menten parameters of maximal velocity (Vmax) and drug affinity (Km) were obtained from plots of the ATPase activity as a function of test drug concentration by nonlinear regression of the following equation:
where v=enzyme activity (nmol Pi/min/mg), Vmax=maximal ATPase activity (nmol Pi/min/mg), Km=Michaelis-Menten constant for the tested substrate (nM) and [S] substrate concentration (nM). The equation 3 was used also for curve fitting on vesicular transport graphs.

[3] = substrate: CN(Cc1cnc2nc(N)nc(N)c2n1)c1ccc(C(=O)N[C@@H](CCC(=O)O)C(=O)O)cc1; assay: cells, lysate or membranes named

- Level of stimulation (vanadate sensitive ATPase activity in %) (ABCG2 [2]; human, 40 min, 50 uM, pH 7): 83 ± 18 (3) %
Molecule: COc1cccc2c1C(=O)c1c(O)c3c(c(O)c1C2=O)C[C@@](O)(C(=O)CO)C[C@@H]3O[C@H]1C[C@H](N)[C@H](O)[C@H](C)O1 [Doxorubicin]

- Vmax (ABCG2-ATPase) (ABCG2 [1]): 38.87 nmol Pi/mg prot./min
- Vmax (ABCG2-ATPase) (ABCG2 [2]): 35.58 nmol Pi/mg prot./min
Molecule: C[C@]12CC[C@@H]3c4ccc(OS(=O)(=O)O)cc4CC[C@H]3[C@@H]1CCC2=O [Estrone-3-sulfate, estrone 3-sulfate]

- Effect on ABCG2-ATPase activity (in words) (ABCG2 [1]): significantly stimulated
- Level of stimulation (vanadate sensitive ATPase activity in %) (ABCG2 [2]; human, 40 min, 200 uM, pH 7): 31%
- Effect on ABCG2-ATPase activity (in words) (ABCG2 [2]; human, 40 min, pH 7): can not be activated
Molecule: CC[C@@]1(O)C(=O)OCc2c1cc1n(c2=O)Cc2cc3c(CN(C)C)c(O)ccc3nc2-1 [Topotecan, topotecan]

- Level of stimulation (vanadate sensitive ATPase activity in %) (ABCG2 [2]; human, 40 min, 5 uM, pH 7): 73 ± 19 (3) %
Molecule: COc1cc2ncnc(Nc3ccc(F)c(Cl)c3)c2cc1OCCCN1CCOCC1 [ZD 1839, Gefitinib]

- Effect of membrane pretreatment on ABCG2-dependent transport activity (in words) (wild-type ABCG2): did not significantly affect
Molecule: Randomly methylated-β-cyclodextrin [CD]

More lines, now with the values behind:

Molecule: Nc1ncnc2c1ncn2[C@@H]1O[C@H](COP(=O)(O)OP(=O)(O)OP(=O)(O)O)[C@@H](O)[C@H]1O [ATP]
- ATP concentration of maximum MTX transport rate (wild-type ABCG2): about 5 mM
- Km (wild-type ABCG2): 600 to 800 µM
- Km (ABCG2 [1]; read-out: KM of vanadate sensitive basal ATPase activity with respect to ATP, ABCG2-M membranes): 2200 µM
- Km (ABCG2 [2]): 2000 µM

Molecule: C[C@]12CC[C@@H]3c4ccc(O)cc4CC[C@H]3[C@@H]1CC[C@@H]2O[C@@H]1O[C@H](C(=O)O)[C@@H](O)[C@H](O)[C@H]1O [ESG, estradiol 17-beta glucuronide]
- apparent Vmax of ESG uptake (wild-type ABCG2; cholesterol-loaded vesicles): 700 pmol ESG/mg membrane protein/min
- apparent Vmax of ESG uptake (wild-type ABCG2; control Sf9 membrane vesicles): less than 50 pmol ESG/mg membrane protein/min
- Km (wild-type ABCG2; read-out: apparent Km for ESG, cholesterol-loaded vesicles): ~45 µM

Molecule: O=C(O)c1cc(/N=N/c2ccc(S(=O)(=O)Nc3ccccn3)cc2)ccc1O [Sulfasalazine, sulfasalazine]
- Effect on ABCG2-ATPase activity (in words) (ABCG2 [1]): significantly stimulated
- Vanadate sensitive ABCG2 ATPase activity activated by the substrate (ABCG2 [1]; human, 40 min, pH 7): 40 nmol/Pi/mg prot/min
- Effect on ABCG2-ATPase activity (in words) (ABCG2 [2]): weak activator
- Level of stimulation (vanadate sensitive ATPase activity in %) (ABCG2 [2]; human, 40 min, 20 uM, pH 7): 71% (3)
- Increase of vanadate sensitive ABCG2 ATPase activity in the presence of the substrate (ABCG2 [2]; human, 40 min, pH 7): 5 nmol/Pi/mg prot/min
- Vanadate sensitive ABCG2 ATPase activity activated by the substrate (ABCG2 [2]; human, 40 min, pH 7): 58 nmol/Pi/mg prot/min

Molecule: O=C1c2c(O)ccc(O)c2C(=O)c2c(NCCNCCO)ccc(NCCNCCO)c21 [mitoxantrone]
- Effect on ABCG2-ATPase activity (in words) (ABCG2 [2]): did not display any effect

Molecule: rhodamine
- Effect on ABCG2-ATPase activity (in words) (ABCG2 [2]; cholesterol loaded Sf9 membranes): did not display any effect

B1: wild-type ABCG2 (Homo sapiens) (protein)
chain: T1 sequence (Q9UNQ0 1-655)
- Km ([3]; other: ABCG2-Sf9 membranes): 3900 µM
- Km ([3]; other: both untreated and C-CD pretreated vesicles): 500 µM
- Km ([3]; other: untreated membranes, ± S.D.): 935 µM

B2: ABCG2 (Homo sapiens) (protein)
chain: T1 sequence (Q9UNQ0 1-655)
- Km ([3]; other: ABCG2-M membranes, pH 7.0, 37.0 °C): 3600 µM

From US8129197B2, “Cholesterol loaded insect cell membranes as test proteins” (SOLVO Biotechnológial ZRT., priority 2006, dated 2012)
